# Assay results published in ChEMBL document CHEMBL3430912, “GSK Tres Cantos Anti-Kinetoplastid Screening (TCAKS) Data”.
# Columns and labels:
# Trypanosoma cruzi [1] = assay: GSK_TCAKS: pIC50 Trypanosoma cruzi viability assay using beta-GAL activity. This assay was run at single shot at 5uM compound concentration per well. The biological reagents consisted of NIH-3T3 host cells and trypomastigotes parasitic cells; both cell types were set to a 3.3 * 10^5 cells/mL dilution in assay DMEM by means of a CASY cell counter device using a 60um capillary. 6 uL of the mixture were dispensed per well (about 1 * 10^3 host-cells and 1 * 10^3 parasites) with a Multidrop Combi dispenser. […] In all wells, the percentage of DMSO never exceeded 0.5%. Plates incubated for four days at 37C, 5% CO2. The substrate used for the assay fluorescence intensity (FLINT) readout was resorufin-beta-D-galactopiranoside (Sigma-Aldrich) at 5uM per well. It was diluted in PBS supplemented with the soft detergent Igepal (Fluka).; format: functional, organism-based, Mus musculus; conditions: Tulahuen, NIH3T3
# Trypanosoma cruzi [2] = assay: (§1) GSK_TCAKS: pIC50 Trypanosoma cruzi Imaging: Infected Cells. […] Cells were then washed once with PBS before infection. T. cruzi trypomastigotes, collected at days 5 to 8 after infection from LLC-MK2 parasite infected cultures, were allowed to swim out for 4h at 37C from a centrifuged pellet (2,500 rpm/10 min/room temperature). Trypomastigotes were then collected and counted in a CASY Cell Counter. Trypomastigotes, in supplemented DMEM, were added to H9c2 cultures in a multiplicity of infection of 1 and incubated for 18 h. Cells were washed once with PBS before incubation of the infected H9c2 monolayer with trypsin (Life-Technologies) to detach cells from the flask. Cells were counted in a CASY Cell Counter using a 150 um capillary and their density set at 5 * 10^4 cells per mL in supplemented assay DMEM. Infected H9c2 were dispensed into 384-well poly-lysine coated assay plates at 50uL per well using a Multidrop Combi dispenser. After seeding them, the plates were incubated at 37C, 5% CO2 for 72h. Cultures were then fixed and stained by addition of 50 uL of a solution containing 8% formaldehyde and 4 uM DRAQ5 DNA dye (BioStatus, UK) per well. […] Five images were collected per well for reliable statistical analysis. Automated image analysis was performed with a script developed on Acapella High Content Imaging and Analysis Software (PerkinElmer). Output: percentage of infected cells per well as a second infection marker.; format: functional, organism-based, Rattus norvegicus; conditions: H9c2, 4 h
# Trypanosoma cruzi [3] = assay: GSK_TCAKS: pIC50 Trypanosoma cruzi Imaging: Amastigotes/Cell. […] Cells were then washed once with PBS before infection. T. cruzi trypomastigotes, collected at days 5 to 8 after infection from LLC-MK2 parasite infected cultures, were allowed to swim out for 4h at 37C from a centrifuged pellet (2,500 rpm/10 min/room temperature). Trypomastigotes were then collected and counted in a CASY Cell Counter. Trypomastigotes, in supplemented DMEM, were added to H9c2 cultures in a multiplicity of infection of 1 and incubated for 18 h. Cells were washed once with PBS before incubation of the infected H9c2 monolayer with trypsin (Life-Technologies) to detach cells from the flask. Cells were counted in a CASY Cell Counter using a 150 um capillary and their density set at 5 * 10^4 cells per mL in supplemented assay DMEM. Infected H9c2 were dispensed into 384-well poly-lysine coated assay plates at 50uL per well using a Multidrop Combi dispenser. After seeding them, the plates were incubated at 37C, 5% CO2 for 72h. Cultures were then fixed and stained by addition of 50 uL of a solution containing 8% formaldehyde and 4 uM DRAQ5 DNA dye (BioStatus, UK) per well. […] Five images were collected per well for reliable statistical analysis. Automated image analysis was performed with a script developed on Acapella High Content Imaging and Analysis Software (PerkinElmer). Output: number of amastigotes per cell as infection level measurement.; format: functional, organism-based, Rattus norvegicus; conditions: H9c2, 4 h
# Trypanosoma cruzi [4] = assay: as §1, with “H2C9” for “Trypanosoma cruzi”, “H9c2 Host Cardiomyocytes.” for “Infected Cells.”, “Number” for “percentage”, “H9c2 Host Cardiomyocytes nuclei to determine drug-related cytotoxicity.” for “infected cells per well as a second infection marker.”; format: functional, organism-based, Rattus norvegicus; conditions: H9c2, 4 h
# Leishmania donovani [5] = assay: GSK_TCAKS: pIC50 Leishmania donovani viability assay using fluorescence intensity. Assay plates (1536-well) were prepared by adding 30nL per well of compound. For single shot assay, the final compound concentration was 5uM. […] Briefly, eGFP LdBOB axenic amastigotes were harvested, fixed and counted in a CASY cell counter (Roche-Applied Science). A final concentration of 1.5 * 10^5 cells per well were prepared in amastigote media containing 500 U/mL penicillin/streptomycin (Invitrogen) and 6uL was dispensed to each experimental well using a Multidrop Combi dispenser (Thermo Scientific). 6uL of assay media was dispensed to control columns used as reference for 100% compound response. Following incubation for 72 h at 37C, 5% CO2, 2 uL of resazurin was added to each well at a final concentration of 0.5 mM in phosphate buffered saline (PBS) with IGEPAL (Sigma-Aldrich), 0.05% (v/v).; format: functional, organism-based
# Leishmania donovani [6] = assay: (§2) GSK_TCAKS: pIC50 Leishmania donovani Imaging: Infected Macrophages. Assay plates (384-well) were prepared by adding 250nL of compound to each well. For single shot assay, the final compound concentration was 5 uM. […] Automated image analysis was performed with a script developed on Acapella High Content Imaging and Analysis Software (PerkinElmer). Output: Percent of infected macrophage cells were reported for each well.; format: functional, organism-based, Homo sapiens; conditions: THP-1
# Leishmania donovani [7] = assay: as §2, with “Amastigotes/Macrophages.” for “Infected Macrophages.”, “Average number” for “Percent”, “amastigotes per” for “infected”, “cell” for “cells”; format: functional, organism-based, Homo sapiens; conditions: THP-1
# Leishmania donovani [8] = assay: as §2, with “THP-1 Host” for “Infected”, “THP-1 cell count” for “Percent of infected macrophage cells”; format: functional, organism-based, Homo sapiens
# [9] = tested on: Trypanosoma brucei brucei; assay: GSK_TCAKS: pIC50 Trypanosoma brucei viability assay using fluorescence intensity. Assay plates (1536-well) were prepared by dispensing 25nL of compound solution per well using an Echo acoustic dispenser (Labcyte).; format: functional, organism-based; conditions: Lister 427, 2 h
# [10] = tested on: Trypanosoma brucei brucei; assay: GSK_TCAKS: pIC50 Trypanosoma brucei viability assay using luminiscence. Assay plates (1536-well) were prepared. T. brucei cultures were harvested and counted in a CASY cell counter. A parasite suspension was prepared at a final concentration of 5 * 10^4 cells/mL in complete HMI9 medium and 6uL was dispensed to all wells containing compounds using a Multidrop Combi dispenser. 6uL of HMI9 media with 0.4% DMSO were dispensed to control columns. Plates were incubated for 24 h at 37C, 5% CO2 then tempered for 10 min at room temperature. ATP content was quantified by adding 4 uL of CellTiter-Glo Reagent (Promega) according to the manufacturer's instructions. Luminescence was measured using a ViewLux.; format: functional, organism-based; conditions: Lister 427, CASY
# [11] = GSK_TCAKS: pIC50 HepG2 human cell line viability assay using luminiscence. […] Seeding density was checked to ensure that new mono-layers were not more than 50% confluent at the time of harvesting. Cell suspension was added to 500 mL of the same medium at a final density of 1.2 * 10^5 cells/mL. This cell suspension was dispensed (25 uL, 3000 cells per well) into 384-well clear-bottom plates using a Multidrop Combi dispenser. Prior to addition of the cell suspension, the screening compounds (250 nL) were pre-dispensed into the plates with an Echo liquid handler. Plates were incubated for 48 h at 37C, 5% CO2. After incubation, plates equilibrated at room temperature for 30 min before proceeding to develop the luminescent signal. The signal developer, CellTiter-Glo Reagent, was allowed to equilibrate at room temperature for 30 min and added to the plates (25uL per well) using a Multidrop Combi dispenser. Plates were left for 10 min at room temperature for stabilization and then read using a ViewLux.; format: toxicity, cell-based
# NIH3T3 = assay: GSK_TCAKS: pIC50 NIH 3T3 cell line viability assay using luminiscence. Tissue culture surface treated assay plates (1536-well) were used. […] The 100% cells survival control was determined exposing the host-cells to a 0.5% DMSO concentration, whereas the 100% toxicity control was achieved by seeding the cells in presence of Amphotericin B at 50uM. Plates were incubated for four days at 37C, 5% CO2. The assay readout was developed by addition of 5uL of CellTiter-Glo Reagent following the manufacturer's instructions. Luminiscence was measured using a ViewLux.; format: functional, cell-based; conditions: Mus musculus, NIH3T3, 96 h
# [12] = molecular target: Sterol 14-alpha demethylase (Trypanosoma cruzi (strain CL Brener), UniProt Q7Z1V1); assay: GSK_TCAKS: pIC50 CYP51 from Trypanosoma cruzi.; format: functional
# Sterol 14-alpha demethylase, sequence (Q7Z1V1 whole entry): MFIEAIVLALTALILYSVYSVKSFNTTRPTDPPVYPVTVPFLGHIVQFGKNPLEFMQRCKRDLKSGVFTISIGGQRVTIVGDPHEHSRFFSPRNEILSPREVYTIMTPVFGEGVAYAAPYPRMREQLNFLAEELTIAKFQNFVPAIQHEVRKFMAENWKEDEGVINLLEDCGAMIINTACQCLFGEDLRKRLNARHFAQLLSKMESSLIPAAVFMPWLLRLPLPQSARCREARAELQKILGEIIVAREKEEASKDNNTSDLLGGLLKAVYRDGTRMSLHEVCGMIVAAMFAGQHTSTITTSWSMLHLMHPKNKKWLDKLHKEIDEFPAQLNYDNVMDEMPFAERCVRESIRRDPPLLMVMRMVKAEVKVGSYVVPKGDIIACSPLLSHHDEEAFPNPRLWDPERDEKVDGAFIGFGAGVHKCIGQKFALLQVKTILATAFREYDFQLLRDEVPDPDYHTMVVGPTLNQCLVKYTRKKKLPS
Structure (SMILES),IC50 (Trypanosoma cruzi [1]) [nM],IC50 (Trypanosoma cruzi [2]) [nM],IC50 (Trypanosoma cruzi [3]) [nM],IC50 (Trypanosoma cruzi [4]) [µM],IC50 (Leishmania donovani [5]) [µM],IC50 (Leishmania donovani [6]) [µM],IC50 (Leishmania donovani [7]) [µM],IC50 (Leishmania donovani [8]) [µM],IC50 [9] [µM],IC50 [10] [µM],IC50 at 48 h [11] [µM],IC50 (NIH3T3) [µM],IC50 [12] [nM]
CCOc1cnn(C)c(=O)c1Nc1ccc(C(=O)NCc2ccc(F)cc2)cc1,251,100,126,> 50.1,31.6,> 50.1,> 50.1,31.6,> 39.8,> 39.8,> 100,> 50.1,3980
CN(Cc1nnnn1C1CCN(Cc2ccc(-n3ccnc3)cc2)CC1)c1ccc(F)cc1F,316,316,316,> 50.1,> 50.1,> 50.1,15.8,> 50.1,> 39.8,> 39.8,> 100,25.1,126
CN(Cc1ccccc1)Cc1nnnn1C1CCN(Cc2ccc(-n3ccnc3)cc2)CC1,398,316,251,> 50.1,> 50.1,> 50.1,> 50.1,31.6,> 39.8,> 39.8,> 100,3.98,50.1
O=C(NC1C(=O)N(c2ccccc2)C1c1cccnc1)c1ccc(Cl)s1 (centres undefined),31.6,50.1,39.8,> 50.1,1,> 50.1,0.794,> 50.1,> 39.8,> 39.8,> 100,> 50.1,200
CCn1nccc1CN(C)C(=O)C=Cc1ccc(Cl)cc1,224,316,316,> 50.1,15.8,> 50.1,> 50.1,> 50.1,31.6,> 39.8,> 100,> 50.1,316
Cc1n[nH]c2c1C(c1ccc(OCc3ccccc3F)cc1)SCC(=O)N2 (centres undefined),2000,3160,794,> 50.1,39.8,> 50.1,> 50.1,> 50.1,25.1,> 39.8,> 100,> 50.1,> 100000
CCCN(Cc1ccc(OC)c(OC)c1)Cc1cc(=O)c2c(C)cc(C)cc2[nH]1,2000,2000,501,> 50.1,20,25.1,20,5.01,25.1,> 39.8,63.1,31.6,> 100000
CCC1Oc2cc(S(=O)(=O)N(C)CC(=O)N3CCc4ccccc4C3)c(C)cc2NC1=O (centres undefined),200,251,251,> 50.1,> 50.1,> 50.1,31.6,> 50.1,25.1,31.6,> 100,> 50.1,794
